Read-outs that look alike come from different tables or passages of the source.
Columns and labels:
TRKA = molecular target: T1, TRKA (Homo sapiens, UniProt P04629); test: Z'-LYTE kinase activity detection, TRKA; format: biochemical
T1 construct: purchased American Life Technologies PV3144

TRKB = molecular target: T2, TRKB (Homo sapiens, UniProt Q16620); test: Z'-LYTE kinase activity detection, TRKB; format: biochemical
T2 construct: purchased American Life Technologies PV3616

TRKC = molecular target: T3, TRKC (Homo sapiens, UniProt Q16288); test: Z'-LYTE kinase activity detection, TRKC; format: biochemical
T3 construct: purchased American Life Technologies PV3617
T3 sequence (Q16288 32-839): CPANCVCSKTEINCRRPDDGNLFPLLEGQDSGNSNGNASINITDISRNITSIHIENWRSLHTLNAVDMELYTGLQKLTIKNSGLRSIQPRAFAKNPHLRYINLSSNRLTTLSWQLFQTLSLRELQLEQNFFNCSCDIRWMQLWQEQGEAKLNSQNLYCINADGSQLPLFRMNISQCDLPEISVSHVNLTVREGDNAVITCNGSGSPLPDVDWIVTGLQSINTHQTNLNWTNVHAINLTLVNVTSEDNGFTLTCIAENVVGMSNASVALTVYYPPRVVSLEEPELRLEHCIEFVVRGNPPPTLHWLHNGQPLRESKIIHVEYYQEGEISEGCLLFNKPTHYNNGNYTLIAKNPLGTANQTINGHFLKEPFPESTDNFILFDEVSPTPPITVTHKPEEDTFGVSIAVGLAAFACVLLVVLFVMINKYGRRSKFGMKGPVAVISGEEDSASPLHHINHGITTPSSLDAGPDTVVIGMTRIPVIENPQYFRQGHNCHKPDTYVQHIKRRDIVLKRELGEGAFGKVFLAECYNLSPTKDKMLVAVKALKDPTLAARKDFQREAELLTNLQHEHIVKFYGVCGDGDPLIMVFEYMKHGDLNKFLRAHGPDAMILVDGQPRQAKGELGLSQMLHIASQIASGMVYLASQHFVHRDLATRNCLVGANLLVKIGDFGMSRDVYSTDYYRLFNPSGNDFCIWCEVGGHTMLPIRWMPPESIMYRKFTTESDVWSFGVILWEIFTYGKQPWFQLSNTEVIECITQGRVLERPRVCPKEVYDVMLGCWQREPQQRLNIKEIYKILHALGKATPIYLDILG

BaF3-CD74-NTRK1 = molecular target: T4, BaF3-CD74-NTRK1 (Homo sapiens, UniProt P04629); test: Cell proliferation inhibition, Ba/F3-TRKs stable strain (CCK-8); format: cell-based, mouse; details: 72 hours, read-out: cell viability IC50 CD74-NTRK1
T4 construct: fused on or other part: P04233 (HLA class II histocompatibility antigen gamma chain)
T4 sequence (P04629 510-796 limits assumed): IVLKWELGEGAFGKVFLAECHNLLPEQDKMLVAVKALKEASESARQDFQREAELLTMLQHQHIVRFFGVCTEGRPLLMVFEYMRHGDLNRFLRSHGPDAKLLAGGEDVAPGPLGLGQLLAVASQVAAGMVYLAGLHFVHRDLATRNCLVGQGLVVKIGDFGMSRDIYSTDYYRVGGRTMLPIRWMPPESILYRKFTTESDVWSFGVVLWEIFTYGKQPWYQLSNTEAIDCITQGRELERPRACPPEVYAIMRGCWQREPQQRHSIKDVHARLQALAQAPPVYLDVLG
Source text: (§1) The BaF3 cells (mouse pre-B cells) used in this experiment were purchased from the Japanese Cell Bank. All of the monoclonal stable strains, BaF3-CD74-NTRK1, BaF3-ETV6-NTRK2 and BaF3-ETV6-NTRK3 were constructed by our laboratory, and were identified by experiments such as positive control, protein expression and gene sequencing.
(§2) The brief steps of stable strain construction were as follows: constructed pCDNA3.1(+) plasmid vector carrying genes such as CD74-NTRK1, ETV6-NTRK2, ETV6-NTRK3; the plasmid was electroporated into Ba/F3 cells using Amaxa® Cell Line Nucleofector® Kit V; 48 hours after electroporation, geneticin (G418) with a final concentration of 1000 μg/mL was added to screen for two weeks, and the interleukin 3 (IL3) was removed to continue screening to obtain polyclonal stable strains; and then single clones were selected by limiting dilution method; the stable strains were then identified by the positive drugs, Western Blot (WB), and gene sequencing; the correct monoclonal through identification can be used to study the cell proliferation inhibitory activity of the inhibitors.
(§3) Cell proliferation inhibitory activity study: The cells in logarithmic growth phase were seeded into 96-well plates at 8000-12000 cells/well, and the inhibitors at different concentrations of (0-10 μM) were added the next day, and the culture was continued for 72 hours; then 10 μL of Cell Counting Kit-8 Cell Counting Reagent (CCK-8 Reagent) was added to each well, and continued to incubate for 1-3 hours; then its absorbance at 450 nm and 650 nm were measured with a super microplate reader. The median inhibitory concentration (IC50) was calculated using medical graphing software (GraphPad Prism 8.0.0).

BaF3-ETV6-NTRK2 = molecular target: T5, BaF3-ETV6-NTRK2 (Homo sapiens, UniProt Q16620); test: as above; format: cell-based, mouse; details: 72 hours, read-out: cell viability IC50 ETV6-NTRK2
T5 construct: fused on or other part: P41212 (Transcription factor ETV6)
T5 sequence (Q16620 538-822 limits assumed): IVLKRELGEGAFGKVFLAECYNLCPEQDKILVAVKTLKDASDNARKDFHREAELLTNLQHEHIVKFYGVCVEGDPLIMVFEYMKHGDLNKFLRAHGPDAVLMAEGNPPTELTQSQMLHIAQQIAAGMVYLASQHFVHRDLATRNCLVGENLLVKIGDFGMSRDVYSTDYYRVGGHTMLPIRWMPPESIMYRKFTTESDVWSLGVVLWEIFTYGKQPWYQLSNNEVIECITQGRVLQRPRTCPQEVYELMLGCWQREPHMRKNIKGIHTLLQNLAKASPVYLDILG
Source text: as §1, §2, §3

BaF3-ETV6-NTRK3 = molecular target: T6, BaF3-ETV6-NTRK3 (Homo sapiens, UniProt Q16288); test: as above; format: cell-based, mouse; details: 72 hours, read-out: cell viability IC50 ETV6-NTRK3
T6 construct: fused on or other part: P41212 (Transcription factor ETV6)
T6 sequence (Q16288 whole entry, the tested form may be a part): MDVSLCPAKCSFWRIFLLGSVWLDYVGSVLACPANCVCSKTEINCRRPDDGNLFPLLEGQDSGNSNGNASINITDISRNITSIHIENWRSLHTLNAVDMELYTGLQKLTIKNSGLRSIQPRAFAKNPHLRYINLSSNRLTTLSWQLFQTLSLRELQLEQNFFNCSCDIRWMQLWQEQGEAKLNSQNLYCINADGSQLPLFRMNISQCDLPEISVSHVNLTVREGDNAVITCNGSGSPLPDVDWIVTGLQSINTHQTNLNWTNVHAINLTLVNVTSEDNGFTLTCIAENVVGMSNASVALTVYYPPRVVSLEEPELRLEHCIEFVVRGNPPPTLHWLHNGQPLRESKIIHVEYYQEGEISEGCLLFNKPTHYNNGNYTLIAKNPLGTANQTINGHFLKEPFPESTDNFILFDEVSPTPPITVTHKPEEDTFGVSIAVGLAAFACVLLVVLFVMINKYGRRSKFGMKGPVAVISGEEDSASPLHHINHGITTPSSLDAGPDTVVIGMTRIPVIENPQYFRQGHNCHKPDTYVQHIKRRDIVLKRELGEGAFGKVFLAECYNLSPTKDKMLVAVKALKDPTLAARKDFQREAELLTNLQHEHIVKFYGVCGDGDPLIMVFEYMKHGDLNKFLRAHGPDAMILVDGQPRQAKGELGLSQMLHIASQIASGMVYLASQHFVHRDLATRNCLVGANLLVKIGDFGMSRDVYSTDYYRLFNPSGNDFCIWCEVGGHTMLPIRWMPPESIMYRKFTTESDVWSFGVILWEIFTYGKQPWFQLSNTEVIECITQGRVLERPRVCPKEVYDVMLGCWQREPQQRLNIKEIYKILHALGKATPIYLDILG
Source text: as §1, §2, §3

[1] = SD rats, cited from earlier work
Bcr-Abl = Bcr-Abl (Homo sapiens, UniProt P00519); test: Kinase selectivity, Z'-LYTE
Method: (§4) Enzymatic reaction: In a 384-well plate, added 5 μL of enzyme-substrate system [50 mM 4-hydroxyethylpiperazineethanesulfonic acid (HEPES) pH 7.5, 0.01% BRIJ-35, 10 mM of magnesium chloride (MgCl2), 1 mM of ethylene glycol bis(2-aminoethyl ether)tetraacetic acid (EGTA), 2 μM of Tyr 01 peptide substrate], transferred 5 nL of compound (concentration gradient) using an Echo520 Ultra-Micro Liquid Pipetting System. […] Shaked and mixed, then centrifuged, and reacted at 30° C. in the dark for 1.5 hours.

SRC = SRC (Homo sapiens, UniProt P12931); test: Kinase selectivity, Z'-LYTE
Method: as §4

RET = RET (Homo sapiens, UniProt P07949); test: Kinase selectivity, Z'-LYTE
Method: as §4

VEGFR2 = VEGFR2 (Homo sapiens, UniProt P35968); test: Kinase selectivity, Z'-LYTE
Method: as §4

Kit = Kit (Homo sapiens, UniProt P10721); test: Kinase selectivity, Z'-LYTE
Method: as §4

PDGFRA = PDGFRA (Homo sapiens, UniProt P16234); test: Kinase selectivity, Z'-LYTE
Sequence of PDGFRA (P16234 24-1089, species assumed): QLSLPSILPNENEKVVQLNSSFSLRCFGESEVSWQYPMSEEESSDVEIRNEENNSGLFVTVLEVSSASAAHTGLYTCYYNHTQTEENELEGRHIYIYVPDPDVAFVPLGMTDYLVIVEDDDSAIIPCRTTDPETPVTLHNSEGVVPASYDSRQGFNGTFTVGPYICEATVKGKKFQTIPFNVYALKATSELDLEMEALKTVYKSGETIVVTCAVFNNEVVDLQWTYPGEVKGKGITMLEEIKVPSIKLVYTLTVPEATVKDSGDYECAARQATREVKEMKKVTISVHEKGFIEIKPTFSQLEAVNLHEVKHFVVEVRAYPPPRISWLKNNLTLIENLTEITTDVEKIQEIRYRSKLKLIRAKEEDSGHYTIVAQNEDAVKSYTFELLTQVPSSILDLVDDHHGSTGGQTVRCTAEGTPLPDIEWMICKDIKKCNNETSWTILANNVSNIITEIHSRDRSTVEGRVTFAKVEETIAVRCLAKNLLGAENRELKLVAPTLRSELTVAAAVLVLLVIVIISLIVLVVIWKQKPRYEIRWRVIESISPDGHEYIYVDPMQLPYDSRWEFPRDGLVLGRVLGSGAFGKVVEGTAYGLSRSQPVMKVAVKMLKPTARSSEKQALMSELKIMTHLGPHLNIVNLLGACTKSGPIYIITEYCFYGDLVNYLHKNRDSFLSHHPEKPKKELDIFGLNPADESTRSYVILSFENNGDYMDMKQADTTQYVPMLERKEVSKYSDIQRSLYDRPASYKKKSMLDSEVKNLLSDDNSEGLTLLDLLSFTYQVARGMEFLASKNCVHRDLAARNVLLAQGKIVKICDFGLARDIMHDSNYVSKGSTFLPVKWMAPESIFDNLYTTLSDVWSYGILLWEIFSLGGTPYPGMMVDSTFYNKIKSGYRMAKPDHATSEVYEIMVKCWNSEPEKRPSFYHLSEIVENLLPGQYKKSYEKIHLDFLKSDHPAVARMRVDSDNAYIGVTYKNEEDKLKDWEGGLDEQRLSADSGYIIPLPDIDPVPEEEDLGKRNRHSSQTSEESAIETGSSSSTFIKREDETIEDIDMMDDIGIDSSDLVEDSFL
Method: as §4

PDGFRB = PDGFRB (Homo sapiens, UniProt P09619); test: Kinase selectivity, Z'-LYTE
Method: as §4

T2 sequence (Q16620 32-822): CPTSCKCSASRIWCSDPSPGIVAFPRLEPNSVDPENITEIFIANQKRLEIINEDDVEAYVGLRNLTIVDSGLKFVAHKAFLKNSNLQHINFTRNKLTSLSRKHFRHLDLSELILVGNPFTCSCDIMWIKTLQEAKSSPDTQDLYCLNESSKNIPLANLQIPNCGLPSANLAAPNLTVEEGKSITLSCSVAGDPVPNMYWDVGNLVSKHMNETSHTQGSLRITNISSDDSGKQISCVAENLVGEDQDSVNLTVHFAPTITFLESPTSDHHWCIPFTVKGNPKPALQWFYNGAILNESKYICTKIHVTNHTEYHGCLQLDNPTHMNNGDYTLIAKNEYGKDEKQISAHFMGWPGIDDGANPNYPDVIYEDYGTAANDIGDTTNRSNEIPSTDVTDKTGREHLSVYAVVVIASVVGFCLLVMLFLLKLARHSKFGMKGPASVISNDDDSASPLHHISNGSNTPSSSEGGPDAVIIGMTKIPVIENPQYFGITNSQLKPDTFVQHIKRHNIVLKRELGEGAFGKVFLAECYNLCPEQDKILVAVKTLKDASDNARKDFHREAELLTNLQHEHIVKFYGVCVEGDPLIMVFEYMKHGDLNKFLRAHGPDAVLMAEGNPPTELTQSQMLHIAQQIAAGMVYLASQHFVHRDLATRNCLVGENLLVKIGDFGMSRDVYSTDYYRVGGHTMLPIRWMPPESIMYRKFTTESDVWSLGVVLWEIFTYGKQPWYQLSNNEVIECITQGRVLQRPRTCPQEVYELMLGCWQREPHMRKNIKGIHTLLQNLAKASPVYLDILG
T1 sequence (P04629 33-796): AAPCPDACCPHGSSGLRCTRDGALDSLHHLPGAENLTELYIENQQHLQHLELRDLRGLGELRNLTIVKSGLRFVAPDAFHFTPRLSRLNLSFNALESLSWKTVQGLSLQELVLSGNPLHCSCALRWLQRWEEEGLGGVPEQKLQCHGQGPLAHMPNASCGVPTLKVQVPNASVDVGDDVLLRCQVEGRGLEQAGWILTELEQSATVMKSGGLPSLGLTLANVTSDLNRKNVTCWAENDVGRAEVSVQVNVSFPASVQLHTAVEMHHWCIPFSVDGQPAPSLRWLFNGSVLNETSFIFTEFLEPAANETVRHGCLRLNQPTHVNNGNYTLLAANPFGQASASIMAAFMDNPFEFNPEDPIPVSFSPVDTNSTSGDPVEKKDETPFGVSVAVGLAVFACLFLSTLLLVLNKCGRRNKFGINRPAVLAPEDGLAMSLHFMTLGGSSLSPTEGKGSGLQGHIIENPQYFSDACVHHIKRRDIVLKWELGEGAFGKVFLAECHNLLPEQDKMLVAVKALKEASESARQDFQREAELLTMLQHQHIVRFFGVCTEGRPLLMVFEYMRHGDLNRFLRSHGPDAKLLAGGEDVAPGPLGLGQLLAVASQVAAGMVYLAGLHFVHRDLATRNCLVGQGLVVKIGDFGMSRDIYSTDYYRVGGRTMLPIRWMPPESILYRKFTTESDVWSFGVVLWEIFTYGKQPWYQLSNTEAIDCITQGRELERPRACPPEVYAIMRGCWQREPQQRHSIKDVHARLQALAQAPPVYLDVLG

| SMILES | IC50 (TRKA) | IC50 (TRKB) | IC50 (TRKC) | IC50 (BaF3-CD74-NTRK1) | IC50 (BaF3-ETV6-NTRK2) | IC50 (BaF3-ETV6-NTRK3) | other results |
| --- | --- | --- | --- | --- | --- | --- | --- |
| Cc1c(C#Cc2cnc3ccc(N4CCN(C)[C@H](C)C4)nn23)cccc1C(=O)Nc1cc(Cl)cc(C(F)(F)F)c1 [XS3-52, (R)—N-(3-CHLORO-5-(TRIFLUOROMETHYL)PHENYL)-3-((6-(3,4-DIMETHYLPIPERAZIN-1-YL)IMIDAZO[1,2-B]PYRIDAZIN-3-YL)ETHYNYL)-2-METHYLBENZAMIDE] | 10 to 100 nM | 10 to 100 nM | 10 to 100 nM | 10 to 100 nM | 100 to 1000 nM | 10 to 100 nM | – |
| Cc1c(C#Cc2cnc3ccc(N4CCN(C5COC5)CC4)nn23)cccc1C(=O)Nc1cc(Cl)cc(C(F)(F)F)c1 [XS3-138, N-(3-CHLORO-5-(TRIFLUOROMETHYL)PHENYL)-2-METHYL-3-((6-(4-(OXETAN-3-YL)PIPERAZINE)-1-YL)IMIDAZO[1,2-B]PYRIDAZIN-3-YL)ETHYNYL)BENZAMIDE] | 10 to 100 nM | < 10 nM | < 10 nM | 10 to 100 nM | 10 to 100 nM | < 10 nM | – |
| Cc1c(C#Cc2cnc3ccc(N4CCC(N(C)C)CC4)nn23)cccc1C(=O)Nc1cc(CN2CCN(C)CC2)cc(C(F)(F)F)c1 [XS3-67, 3-((6-(4-(DIMETHYLAMINO)PIPERIDIN-1-YL)IMIDAZO[1,2-B]PYRIDAZIN-3-YL)ETHYNYL)-2-METHYL-N-(3-((4-METHYLPIPERAZIN-1-YL)METHYL)-5-(TRIFLUOROMETHYL)PHENYL)BENZAMIDE] | < 10 nM | 10 to 100 nM | < 10 nM | 100 to 1000 nM | 100 to 1000 nM | 10 to 100 nM | – |
| Cc1c(C#Cc2cnc3ccc(N4CCOCC4)nn23)cccc1C(=O)Nc1cc(C(F)(F)F)cc(C(F)(F)F)c1 [XS4-76] | 10 to 100 nM | 10 to 100 nM | 10 to 100 nM | 10 to 100 nM | 10 to 100 nM | 10 to 100 nM | – |
| Cc1c(C#Cc2cnc3ccc(N4CC[C@H](O)C4)nn23)cccc1C(=O)Nc1cc(Cl)cc(C(F)(F)F)c1 [XS3-58, (S)—N-(3-CHLORO-5-(TRIFLUOROMETHYL)PHENYL)-3-((6-(3-HYDROXYPYRROLIDIN-1-YL)IMIDAZO[1,2-B]PYRIDAZIN-3-YL)ETHYNYL)-2-METHYLBENZAMIDE] | 10 to 100 nM | 10 to 100 nM | 10 to 100 nM | 100 to 1000 nM | 100 to 1000 nM | 10 to 100 nM | – |
| Cc1c(C#Cc2cnc3ccc(N4CCC(N)CC4)nn23)cccc1C(=O)Nc1cc(Cl)cc(C(F)(F)F)c1 [XS3-131, 3-((6-(4-AMINOPIPERIDIN-1-YL)IMIDAZO[1,2-B]PYRIDAZIN-3-YL)ETHYNYL)-N-(3-CHLORO-5-(TRIFLUOROMETHYL)PHENYL)-2-METHYLBENZAMIDE] | 10 to 100 nM | 10 to 100 nM | 10 to 100 nM | 100 to 1000 nM | 100 to 1000 nM | 10 to 100 nM | – |
| Cc1c(C#Cc2cnc3ccc(NCCN4CCOCC4)nn23)cccc1C(=O)Nc1cc(Cl)cc(C(F)(F)F)c1 [XS3-53, N-(3-CHLORO-5-(TRIFLUOROMETHYL)PHENYL)-2-METHYL-3-((6-((2-MORPHOLINOETHYL)AMINO)IMIDAZO[1,2-B]PYRIDAZIN-3-YL)ETHYNYL)BENZAMIDE] | < 10 nM | 10 to 100 nM | < 10 nM | 10 to 100 nM | 100 to 1000 nM | 10 to 100 nM | – |
| Cc1c(C#Cc2cnc3ccc(N4CCOCC4)nn23)cccc1C(=O)Nc1cc([N+](=O)[O-])cc(C(F)(F)F)c1 [XS4-77] | 10 to 100 nM | 10 to 100 nM | 10 to 100 nM | 10 to 100 nM | 10 to 100 nM | < 10 nM | – |
| Cc1c(C#Cc2cnc3cnc(-c4ccc(N)cc4)cn23)cccc1C(=O)Nc1cc(CN2CCN(C)CC2)cc(C(C)C)c1 [Compound 9o] | – | – | – | – | – | – | AUC (0-∞) ([1]; intravenous injection, 5 mg/kg): 810.45 ng·h/mL; AUC(0-t) ([1]; intravenous injection, 5 mg/kg): 804.65 ng·h/mL; Clearance rate ([1]; intravenous injection, 5 mg/kg): 21.0085 mL/min/kg; Cmax ([1]; intravenous injection, 5 mg/kg): 1968.37 ng/mL; Tmax ([1]; intravenous injection, 5 mg/kg): 0.083 h; half-life ([1]; intravenous injection, 5 mg/kg): 2.03 h; BA ([1]; oral 25 mg/kg vs intravenous 5 mg/kg): 10.72%; AUC (0-∞) ([1]; oral, 25 mg/kg): 445.18 ng·h/mL; AUC(0-t) ([1]; oral, 25 mg/kg): 431.49 ng·h/mL; Cmax ([1]; oral, 25 mg/kg): 63.3 ng/mL; Tmax ([1]; oral, 25 mg/kg): 2 h; half-life ([1]; oral, 25 mg/kg): 4.77 h |
| Cc1cn(-c2cc(NC(=O)c3cccc(C#Cc4cnc5ccc(N6CCOCC6)nn45)c3C)cc(C(F)(F)F)c2)cn1 [XS3-91] | < 10 nM | < 10 nM | < 10 nM | 10 to 100 nM | 10 to 100 nM | < 10 nM | – |
| Cc1ccc(C(=O)Nc2cc(Cl)cc(C(F)(F)F)c2)cc1C#Cc1cnc2ccc(N3CCC(O)CC3)nn12 [XS4-128, N-(3-Chloro-5-(trifluoromethyl)phenyl)-3-((6-(4-hydroxypiperidin-1-yl)imidazo[1,2-B]pyridazine-3-yl)ethynyl)-4-methylbenzamide, reference compound] | – | – | – | – | – | – | IC50 (Bcr-Abl): 129 nM; IC50 (SRC): 20.3 nM; IC50 (RET): 10.7 nM; IC50 (VEGFR2): 18.9 nM; IC50 (Kit): 93.5 nM; IC50 (PDGFRA): 19.9 nM; IC50 (PDGFRB): 119 nM |

Source: US11834454B2, “Alkynylphenylbenzamide compounds and applications thereof” (SHENZHEN NEWDEL BIOTECH CO., LTD., priority 2021, dated 2023)
